In patent US6696076B2, “Immune response modifier compounds for treatment of TH2 mediated and related diseases” (3M Innovative Properties Company, priority 1996, dated 2004):

Assays:
IL-5 = assay: Antigen-induced IL-5 in BAL after aerosol OVA challenge (ELISA); type: in vivo, mouse; settings: 1 mg/kg, 15 minutes prior to antigen challenge, mice
Procedure: (§1) Concentrations of IL-4 were reduced in the BAL of these mice by 43% when compared to animals receiving antigen alone. […] Fourteen days after boosting animals were dosed by nebulization for 30 minutes using a 1% OVA solution. This was repeated on days 17 and 20. Twenty-four hours after the final nebulized dose animals were sacrificed and bronchoalveolar lavage (BAL) was performed using 1.0 ml of PBS containing 1% fetal bovine serum. BAL was stored at −70° C. before analyzed. Lungs were then removed and placed in 0.5% cetrimide, 0.05 M KH2PO4 for homogenization of 4×30 seconds with 30 second cooling intervals between on ice. Centrifugation was then done at 1300 rpm (400×g) for 30 minutes at 4C. Pellet was collected and resuspended in 4 ml 0.5% cetrimide, 0.05 M KH2PO4 buffer. Samples were then frozen until sonication and the EPO assessment. This was followed by sonication for 3×15 seconds with 30 second intervals on ice. BAL were analyzed by ELISA (Endogen) for IL-5 and IL-4 concentrations with data being presented as the average from 11 animals ±SEM. Results are presented as the mean of triplicate cultures ±SEM. IL-5 concentration is in pg/ml.

[1] = tested on: ovalbumin-induced eosinophilia in the lung; assay: Ovalbumin-induced lung eosinophilia in the guinea pig (EPO assay); type: in vivo; settings: for maximum inhibition of ovalbumin-induced eosinophilia: maximum over doses and routes tested
[2] = tested on: antigen-induced eosinophilia in the lung; assay: Antigen-induced lung eosinophilia after aerosol OVA challenge (EPO in lung); type: in vivo, mouse; settings: 1 mg/kg, 15 minutes prior to antigen challenge, mice
Procedure: as §1, with “[…] To start” for “BAL were analyzed by ELISA (Endogen) for IL-5 and IL-4 concentrations with data being presented as”, “reaction, 1 ul of 30% hydrogen peroxide was added to” for “average from 11 animals ±SEM. Results are presented as”, “cuvette. The optical density reading was measured spectrophotometrically over a 4 minute time interval at 490 nm” for “mean of triplicate cultures ±SEM. IL-5 concentration is”, “a Beckman Du-64 spectrophotometer.” for “pg/ml.”

IL-4 = assay: Antigen-induced IL-4 in BAL after aerosol OVA challenge (ELISA); type: in vivo, mouse; settings: 1 mg/kg, 15 minutes prior to antigen challenge, mice
Procedure: as §1

[3] = tested on: sephadex-induced eosinophilia in the lung; assay: Sephadex-induced lung eosinophilia in rats (EPO assay); type: in vivo; settings: rat; for maximum inhibition of sephadex-induced eosinophilia: maximum over doses and routes tested; for dose capable of inhibiting sephadex-induced eosinophilia in the lung: 60 minutes prior to challenge
[4] = tested on: antigen induced IL-5 production; assay: Antigen induced IL-5 production in vivo (serum, OVA-challenged sensitized mice); parameters: species or system mouse; settings: for −24 hr IL-5: 24 hrs before OVA challenge; for −24 hr IL-5 / 0 hr IL-5: serum 7 hrs after OVA; for 0 hr IL-5: same time as OVA challenge
Procedure: CFW male mice were sensitized with OVA as described above. 14 days after the last sensitization animals were challenged with 100 μg OVA sc. […] Serum was collected 7 hrs after OVA and analyzed for IL-5 and IFN-γ concentrations. Results are expressed as the mean cytokine concentration ±SEM.

[5] = tested on: IL-5 production in spleen cells from OVA-sensitized CFW mice; assay: Inhibition of mouse spleen cell production of IL-5 (OVA-stimulated cultures, ELISA); type: cell-based; settings: for IL-5 Concentration: 96 hr
[6] = oral administration, 0.001 mg/kg
[7] = oral administration, 0.01 mg/kg
[8] = aerosol inhalation, 0.003 mg/kg
[9] = intraperitoneal administration, 0.003 mg/kg
[10] = intraperitoneal administration, 0.01 mg/kg
[11] = intraperitoneal administration, 0.03 mg/kg
[12] = intraperitoneal administration, 3.0 mg/kg
[13] = intratracheal instillation, 0.03 mg/kg
[14] = intratracheal instillation, 0.1 mg/kg
[15] = intratracheal instillation, 0.3 mg/kg
[16] = intratracheal instillation, 0.7 mg/kg
[17] = oral administration, 30.0 mg/kg

CCOCc1nc2c(N)nc3ccccc3c2n1CC(C)(C)O [Cmpd 2, 4-amino-2-ethoxymethyl-α,α-dimethyl-1H-imidazo[4,5-c]quinoline-1-ethanol]
IL-5 Concentration in BAL (IL-5): 13 ± 2 pg/mL | reduction of BAL IL-5 concentration (value in parentheses) (IL-5): 78% | maximum inhibition of ovalbumin-induced eosinophilia [1]: 96% | % Inhibition [1, 6]: 19% | EPO Concentration in the Lung (χ ± SE) [1, 6]: 0.1862 ± 0.030 | % Inhibition [1, 7]: 49% | EPO Concentration in the Lung (χ ± SE) [1, 7]: 0.1181 ± 0.020 | % Inhibition ([1]; oral administration, 0.1 mg/kg): 95% | EPO Concentration in the Lung (χ ± SE) ([1]; oral administration, 0.1 mg/kg): 0.0118 ± 0.005 | % Inhibition ([1]; oral administration, 1.0 mg/kg): 96% | EPO Concentration in the Lung (χ ± SE) ([1]; oral administration, 1.0 mg/kg): 0.0084 ± 0.005 | dose capable of inhibiting ovalbumin-induced eosinophilia in the lung ([1]; oral administration, 60 minutes prior to challenge): 0.01 mg/kg | EPO Concentration in Lung [2]: 352 ± 30 ABS | inhibition of antigen-induced eosinophilia in the lung (value in parentheses) [2]: 78% | IL-4 Concentration in BAL (IL-4): 53 ± 8 pg/mL | reduction of BAL IL-4 concentration (value in parentheses) (IL-4): 43% | reduction of BAL IL-4 concentration (value in parentheses) (IL-4; listed as IRM Compound): 42% | maximum inhibition of sephadex-induced eosinophilia [3]: 87% | % Inhibition [3, 6]: 0% | EPO Concentration in the Lung (χ ± SE) [3, 6]: 0.6775 ± 0.140 | % Inhibition [3, 7]: 32% | EPO Concentration in the Lung (χ ± SE) [3, 7]: 0.4908 ± 0.070 | % Inhibition ([3]; oral administration, 0.1 mg/kg): 84% | EPO Concentration in the Lung (χ ± SE) ([3]; oral administration, 0.1 mg/kg): 0.2000 ± 0.060 | % Inhibition ([3]; oral administration, 1.0 mg/kg): 87% | EPO Concentration in the Lung (χ ± SE) ([3]; oral administration, 1.0 mg/kg): 0.1824 ± 0.060 | dose capable of inhibiting sephadex-induced eosinophilia in the lung ([3]; oral administration): ≥ 0.01 mg/kg | inhibition of IL-5 production ([4]; doses as low as 0.01 mg/kg po): at least 65% | −24 hr IL-5 ([4]; free-base po 0.01 mg/kg): 78 pg/mL | 0 hr IL-5 ([4]; free-base po 0.01 mg/kg): 96 pg/mL | −24 hr IL-5 ([4]; free-base po 0.1 mg/kg): 49 pg/mL | 0 hr IL-5 ([4]; free-base po 0.1 mg/kg): 62 pg/mL | −24 hr IL-5 ([4]; free-base po 1.0 mg/kg): 38 pg/mL | 0 hr IL-5 ([4]; free-base po 1.0 mg/kg): 40 pg/mL | −24 hr IL-5 ([4]; free-base po 10.0 mg/kg): 8 pg/mL | 0 hr IL-5 ([4]; free-base po 10.0 mg/kg): 29 pg/mL | IL-5 Concentration ([5]; OVA 100 μg/ml + IRM Compound 0.01 μg/ml, mean ±SEM): 125 ± 46 pg/mL | IL-5 Concentration ([5]; OVA 100 μg/ml + IRM Compound 0.1 μg/ml, mean ±SEM): 25 ± 8 pg/mL | IL-5 Concentration ([5]; OVA 100 μg/ml + IRM Compound 1 μg/ml, mean ±SEM): 22 ± 3 pg/mL | IL-5 Concentration ([5]; OVA 100 μg/ml + IRM Compound 10 μg/ml, mean of triplicate cultures ±SEM): 12 ± 2 pg/mL | inhibition of IL-5 production ([5]; concentrations as low as 0.01 μg/ml): greater than 60% | inhibition of IL-5 production ([5]; higher concentrations (above 0.01 μg/ml)): 100%

Cc1nc2c(N)nc3ccccc3c2n1CC(C)(C)O [Cmpd 1, 4-amino-α,α,-2-trimethyl-1H-imidazo[4,5-c]quinoline-1-ethanol]
% Inhibition [1, 8]: 13% | EPO Concentration in the Lung (χ ± SE) [1, 8]: 0.2620 ± 0.116 | % Inhibition ([1]; aerosol inhalation, 0.01 mg/kg): 44% | EPO Concentration in the Lung (χ ± SE) ([1]; aerosol inhalation, 0.01 mg/kg): 0.1806 ± 0.035 | dose capable of inhibiting ovalbumin-induced eosinophilia in the lung ([1]; aerosol inhalation, 15 minutes prior to challenge): 0.01 mg/kg | % Inhibition [1, 9]: 28% | EPO Concentration in the Lung (χ ± SE) [1, 9]: 0.2435 ± 0.0515 | % Inhibition [1, 10]: 54% | EPO Concentration in the Lung (χ ± SE) [1, 10]: 0.1690 ± 0.053 | % Inhibition [1, 11]: 54% | EPO Concentration in the Lung (χ ± SE) [1, 11]: 0.1693 ± 0.060 | % Inhibition [1, 12]: 92% | EPO Concentration in the Lung (χ ± SE) [1, 12]: 0.0580 ± 0.018 | dose capable of inhibiting ovalbumin-induced eosinophilia in the lung ([1]; intraperitoneal administration, 15 minutes prior to challenge): 0.01 mg/kg | maximum inhibition of ovalbumin-induced eosinophilia [1]: 92% | % Inhibition [3, 13]: 0% | EPO Concentration in the Lung (χ ± SE) [3, 13]: 0.7107 ± 0.129 | % Inhibition [3, 14]: 9% | EPO Concentration in the Lung (χ ± SE) [3, 14]: 0.5030 ± 0.089 | % Inhibition [3, 15]: 44% | EPO Concentration in the Lung (χ ± SE) [3, 15]: 0.3440 ± 0.201 | % Inhibition [3, 16]: 77% | EPO Concentration in the Lung (χ ± SE) [3, 16]: 0.1967 ± 0.080 | dose capable of inhibiting sephadex-induced eosinophilia in the lung ([3]; intratracheal instillation): ≥ 0.7 mg/kg | maximum inhibition of sephadex-induced eosinophilia [3]: 95% | % Inhibition ([3]; oral administration, 0.1 mg/kg): 0% | EPO Concentration in the Lung (χ ± SE) ([3]; oral administration, 0.1 mg/kg): 0.4240 ± 0.138 | % Inhibition ([3]; oral administration, 0.7 mg/kg): 64% | EPO Concentration in the Lung (χ ± SE) ([3]; oral administration, 0.7 mg/kg): 0.1497 ± 0.030 | % Inhibition ([3]; oral administration, 1.0 mg/kg): 87% | EPO Concentration in the Lung (χ ± SE) ([3]; oral administration, 1.0 mg/kg): 0.0780 ± 0.039 | % Inhibition ([3]; oral administration, 5.0 mg/kg): 87% | EPO Concentration in the Lung (χ ± SE) ([3]; oral administration, 5.0 mg/kg): 0.0790 ± 0.030 | % Inhibition [3, 17]: 95% | EPO Concentration in the Lung (χ ± SE) [3, 17]: 0.0550 ± 0.013 | dose capable of inhibiting sephadex-induced eosinophilia in the lung ([3]; oral administration): ≥ 0.7 mg/kg
